In PubChem BioAssay AID179 (DTP/NCI, 2004):
Values joined by “and” are separate entries in the source; they are usually repeats but may differ in a detail not shown here. Equal entries are not always repeated. Active and inactive are the calls of the source.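 The calls were made as follows: active = compounds giving half or more protection of infected cells from virus-caused growth loss, again on retest; inactive = the rest.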 Where a SMILES comes first, the peptide text is derived from it. Bridges are numbered along the chain shown (N, C = ends). [ ]: non-standard residue; d: D form. Phe(4-NO2) = N[CH](Cc1ccc([N+](=O)[O-])cc1)C(=O)O

System: CEM cells HIV-1 protection, formazan growth assay
Test: NCI AIDS Antiviral Assay
Details: for IC50: measured here: growth of uninfected CEM cells
How it was run: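 Protection of CEM cells against HIV-1 measured as cell growth via soluble formazan read-out, with five concentrations tested on both infected and uninfected cells; failure to protect may reflect toxicity.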

SMILES | EC50 [µM] | IC50 | outcome
CCOP(=S)(NN=C1CCCC1)OCC | > 200 | > 200 µM | –
CCc1ccc(Cc2ccc(CC)c(NC(=O)C(=O)Cc3nc4ccccc4nc3C)c2CC)c(CC)c1NC(=O)C(=O)Cc1nc2ccccc2nc1C | > 13.5 | > 13.5 µM | –
Cc1cc(C)nc(NS(=O)(=O)c2ccc(NNc3c4ccccc4nc4c(C(=O)Nc5ccc(S(N)(=O)=O)cc5)cccc34)cc2)n1 | > 200 | 11 µM | –
N=C1SCc2c1sc1ccccc21 | > 56.2 | 28.8 µM | –
C=CCCCCCCCCCOC1C=CC(O)C(CO)O1 (stereo not given) | > 200 | 35.5 µM | –
CC(C(=O)Oc1ccc2ccccc2c1-c1c(O)ccc2ccccc12)c1ccccc1 (stereo not given) | > 2.51 | > 2.51 µM | –
COC(=O)C1CCC(=O)NCCCCC(NC(=O)C(N)CC(=O)O)C(=O)N1 (stereo not drawn) (H-Asp-Lys-Glu-OMe; lactam 2-3; configuration not given here) | > 200 | 91.2 µM | –
Cc1c(C)c2cc3c(=O)ccoc3c(C)c2oc1=O | > 20.4 | > 20.4 µM | –
CN(C)c1ccc(N=C2N=C(Nc3ccccc3)C(=Nc3ccccc3)S2)cc1 | > 100 | 72.4 µM | –
N#Cc1ccccc1NC1OCC(O)C(O)C1O (stereo not given) | – | – | inactive
COC1NC(=O)Oc2c(F)cccc21 (stereo not given) | – | – | inactive
N/N=C1/CCN2CCCc3cccc1c32 | > 200 | 182 µM | –
O=C(CCc1ccccc1)CC1OC(=O)C(Cl)=C1Cl (stereo not given) | > 33.1 | > 33.1 µM | –
COc1cc(/C=C2/Cc3ccccc3C2=O)ccc1O | > 107 | 55 µM | –
C1CC[N+]2(C1)CC[N+]1(CCCC1)CC2 | > 200 | > 200 µM | –
Cc1nnc(Nc2ccccc2)o1 | – | – | inactive
CN=c1ncc2nc(-c3ccccc3)c(-c3ccccc3)n(C)c-2n1 | – | – | inactive
Cc1cc(OCC(O)CO)ccc1-c1ccccc1 (stereo not given) | > 977 | 295 µM | –
S=C(NCc1ccccc1)N/N=C/c1ccccn1 | > 20 | 0.141 µM | –
CCOC(=O)/C=C1/Nc2cc(Cl)c(Cl)cc2NC1=O | > 9.12 | > 9.12 µM | –
NCCCCNc1ccc2c(=O)[nH][nH]c(=O)c2c1 | – | – | inactive

SMILES | EC50 [µM] | IC50 | outcome
Cn1c(=O)c(C#N)c2n(c1=S)CCCCCCC2 | > 200 | 112 µM | –
O=C(/C(=C/c1ccc(O)cc1)c1ccccc1)c1ccccc1 | > 120 | 36.3 µM | –
[O]=[Sb]([OH])([OH])[c]1ccccc1 | > 200 | 77.6 µM and > 200 µM | –
O=S(=O)(C=C=CCO)c1ccccc1 | – | – | inactive
[N-]=[N+]=NCC(CO)OCn1cc(Cc2ccccc2)c(=O)[nH]c1=O (stereo not given) | – | – | inactive
Cc1ccc(S(=O)(=O)OC2C3C=CC2C2CSCC32)cc1 (stereo not given) | > 100 | > 100 µM | –
O=C(/C=C/c1ccc(Cl)cc1)NC1C=Nc2ccc([N+](=O)[O-])cc2NC1=O (stereo not given) | > 200 | > 200 µM | –
CCOC(=O)Nc1nc2ccccc2[nH]1 | > 200 | 11.2 µM | –
O=C(NO)Nc1ccc(Cl)cc1 | – | 251 µM | inactive
CC/C(=N/O)C(C)C(=O)CCC(=O)Nc1ccc(Cl)cc1 (stereo not given) | > 83.2 | > 83.2 µM | –
[N-]=[N+]=NC1CC(n2cc(Cc3ccccc3)c(=O)[nH]c2=O)OC1COC(=O)CCC(=O)O (stereo not given) | > 562 | > 562 µM | –
CCOC(=O)C(F)(F)C(=O)OCC | > 200 | > 200 µM | –
O=C(CC(=O)c1cccnc1)NC(=O)c1ccccc1 | > 355 | > 355 µM | –
COC(=O)CCC(NC(=O)C(CCC(=O)OC)NC(=O)C(CCC(=O)OC)NC(=O)C(CCC(=O)OC)NC(=O)C(CCC(=O)OC)NC(=O)C(Cc1ccc([N+](=O)[O-])cc1)NC(=O)C(CCC(=O)OC)NC(=O)C(CCC(=O)OC)NC(=O)C(CCC(=O)OC)NC(=O)C(CCC(=O)OC)NC(=O)C(CCC(=O)OC)NC(C)=O)C(N)=O (stereo not given) (Ac-E(OMe)E(OMe)E(OMe)E(OMe)E(OMe)[Phe(4-NO2)]E(OMe)E(OMe)E(OMe)E(OMe)E(OMe)-NH2; configuration not given here) | > 100 | > 100 µM | –
CC(=O)O.[Ag] | > 64.6 | 18.2 µM | –
Nc1ccc2[se]nc3c2c1C(=O)c1ccccc1-3 | > 6.76 | > 6.76 µM | –
Cc1cccc(N=Cc2ccc(N(CCC#N)S(=O)(=O)c3ccccc3)cc2C)c1 | > 224 | 145 µM | –
Cc1ccc(C2(Br)C(=O)c3ccccc3C2=O)cc1 | > 200 | > 200 µM | –
Cc1cccc(NP2(Nc3cccc(C)c3)=NP(Nc3cccc(C)c3)(Nc3cccc(C)c3)=NP(Nc3cccc(C)c3)(Nc3cccc(C)c3)=NP(Nc3cccc(C)c3)(Nc3cccc(C)c3)=N2)c1 | > 200 | > 200 µM | –
COc1cccc(C2N3CCCCC3[C@@H]3c4[nH]c5ccccc5c4CCN23)c1OC (stereo not given in full) | > 33.9 | > 33.9 µM | –
CCOP(=O)(OCC)C(C)(C)OC(=O)NC#N | > 200 | > 200 µM | –

SMILES | EC50 [µM] | IC50 | outcome
COc1c(-c2cccs2)oc2c(CC(=O)O)cccc2c1=O | > 200 | 91.2 µM | –
COc1ccc(-c2nc(Nc3ccccc3)sc2Cc2sc(Nc3ccccc3)nc2-c2ccc(OC)cc2)cc1 | – | – | inactive
Oc1cc(O)c2c(c1)O[C@@H](c1ccc(O)c(O)c1)[C@H](O)C2 | > 200 | > 200 µM | –
CC(C)C[CH2][Ge]([CH2]CC(C)C)([CH2]CC(C)C)[CH2]CC(C)C | > 200 | > 200 µM | –
CCc1cc2c(c3[nH]ccc13)[C@@H](C)C[C@H]2C | – | – | inactive
CC(C)=Cc1cc(C(=O)NCCNC(=O)c2cc(C=C(C)C)nc(NC#N)n2)nc(NC#N)n1 | > 5.89 | > 5.89 µM | –
CC(=O)Oc1ccc2c(c1)c1c(=O)oc(N(C)C)nc1n2Cc1ccccc1 | > 200 | 120 µM | –
Cc1c(C(=O)NCCO)[n+](=O)c2cc(Cl)ccc2n1[O-] | > 832 | 56.2 µM | –
O=S(=O)([O-])[O-].[Fe+2].c1ccc(/C(=N\Nc2ccccn2)c2ccccn2)cc1 | – | – | inactive
CC(=O)OC1C(COC(N)=O)OC(n2c(-c3ccc(C)cc3)cc(-c3ccccc3)c(C#N)c2=O)C(OC(C)=O)C1OC(C)=O (stereo not given) | > 11.5 | > 11.5 µM | –
COc1ccc(-c2onc3ccc(Cl)cc23)cc1 | > 20 | > 20 µM | –
O=C(O)CN1CCN2CCCCCCCCN(CC1)CCN(CC(=O)O)CC2 | > 200 | 13.2 µM | –
Cc1ccc(/C=N/NC2=NCCN2)s1 | > 200 | 166 µM | –
CCNC(=O)OCc1cnc(C)c(O)c1COC(=O)NCC | > 200 | > 200 µM | –
CN(Nc1cc(=O)[nH]c(=O)[nH]1)c1ccccc1 | > 200 | > 200 µM | –
NC1=NS(=O)(=O)Nc2nc(-c3ccc(Cl)cc3)[nH]c21 | > 200 | > 200 µM | –
NCCCCC(=O)c1cccnc1 | > 1000 | 501 µM | –
COc1c2cc([N+](=O)[O-])cc1CN(C(=O)C(F)(F)F)CCOCCN(C(=O)C(F)(F)F)C2 | > 200 | > 200 µM | –
COC(=O)Oc1nn(C(=O)OC)c(=O)c2ccccc12 (tested in a mixture with another compound) | > 200 | > 200 µM | –
c1ccc(N2N=NC3C4CC(C5c6ccccc6C45)C32)cc1 (stereo not given) | – | – | inactive
N#CCc1nc2c(s1)C(=O)c1ccccc1C2=O | > 7.94 | > 7.94 µM | –
